Literature values, collected in US20220241055A1, “DENTAL IMPLANT WITH ANTIBACTERIAL/ ANTIMICROBIAL PROPERTY HAVING METAL-ORGANIC FRAMEWORK (MOF) STRUCTURE AND PRODUCTION METHOD THEREOF” (RECEP TAYYIP ERDOGAN UNIVERSITESI, priority 2019, published 2022).

Settings: conditions similar to body medium (SBF, 37° C.), stored in metal-organic framework structures

duration of release of the stored drug: 6 days
Compound: CC(C)Cc1ccc(C(C)C(=O)O)cc1 (stereo not shown) [ibuprofen]
